Measurements reported in US20210138025A1, “CATIONIC PEPTIDES WITH IMMUNOMODULATORY AND/OR ANTI-BIOFILM ACTIVITIES” (priority 2018, published 2021).
Like-named read-outs stand apart in the source and are kept apart here. No end group written: not given here.

Legend:
S. aureus (Sau) [1] = assay type: cell-based
Streptococcus suis (Ss) [2] = assay type: cell-based
Protocol: (§1) The same strains as in Table 18 were assessed for Minimal Biofilm Inhibitory Concentrations (MBIC) (Table 19). Italics=excellent activity (less than or equal to 4 μg/ml). ND=Not determined. Peptides 3013, 3015 and 3016 inhibited biofilm growth in the largest number of bacterial strains (5, 5 and 6 out of 13 strains, respectively).

[3] = tested on: Staphylococcus pseudintermedius (Sp); assay type: cell-based
Protocol: as §1

[4] = tested on: Pseudomonas aeruginosa (Pa); assay type: cell-based
Protocol: as §1

[5] = tested on: Streptococcus agalactiae (Sa); assay type: cell-based
Protocol: as §1

Histophilus somnus (Hs) [6] = assay type: cell-based
Protocol: as §1

[7] = tested on: Bordatella bronchiseptica (Bb); assay type: cell-based
Protocol: as §1

[8] = tested on: Streptococcus uberis (Su); assay type: cell-based
Protocol: as §1

[9] = tested on: Streptococcus dysgalactiae (Sd); assay type: cell-based
Protocol: as §1

[10] = tested on: Staphylococcus epidermidis (Se); assay type: cell-based
Protocol: as §1

[11] = tested on: Pasteurella multocida (Pm); assay type: cell-based
Protocol: as §1

[12] = tested on: planktonic methicillin resistant S. aureus; experiment: microbe, parasite or virus in culture; assay type: cell-based, Staphylococcus aureus
PBMCs = experiment: Cytotoxicity towards PBMCs, lactate dehydrogenase (LDH) release assay (Tables 6, 7); details: SPOT synthesized peptide ~25 μM, PBMCs from 3 human donors; Table 6
Streptococcus suis (Ss) [13] = assay type: cell-based; remark: listed apart in the source
Protocol: (§2) The following strains were assessed vs. Staphylococcus epidermidis (Se), Pseudomonas aeruginosa (Pa), Streptococcus dysgalactiae (Sd), Pasteurella multocida (Pm), Streptococcus agalactiae (Sa), Streptococcus uberis (Su), Streptococcus suis (Ss), Mannheimia haemolytica (Mh), Bordatella bronchiseptica (Bb), Histophilus somnus (Hs), and Staphylococcus pseudintermedius (Sp) (Table 18) for Minimal Inhibitory Concentrations (MIC). Italics=excellent activity (less than or equal to 4 μg/ml).

[14] = tested on: Staphylococcus pseudintermedius (Sp); assay type: cell-based; remark: listed apart in the source
Protocol: as §2

[15] = tested on: Pseudomonas aeruginosa (Pa); assay type: cell-based; remark: listed apart in the source
Protocol: as §2

[16] = tested on: Mannheimia haemolytica (Mh); assay type: cell-based
Protocol: as §2

[17] = tested on: Streptococcus agalactiae (Sa); assay type: cell-based; remark: listed apart in the source
Protocol: as §2

Histophilus somnus (Hs) [18] = assay type: cell-based; remark: listed apart in the source
Protocol: as §2

[19] = tested on: Bordatella bronchiseptica (Bb); assay type: cell-based; remark: listed apart in the source
Protocol: as §2

[20] = tested on: Streptococcus uberis (Su); assay type: cell-based; remark: listed apart in the source
Protocol: as §2

[21] = tested on: Streptococcus dysgalactiae (Sd); assay type: cell-based; remark: listed apart in the source
Protocol: as §2

[22] = tested on: Staphylococcus epidermidis (Se); assay type: cell-based; remark: listed apart in the source
Protocol: as §2

[23] = tested on: Pasteurella multocida (Pm); assay type: cell-based; remark: listed apart in the source
Protocol: as §2

S. aureus (Sau) [24] = assay type: cell-based; remark: listed apart in the source
Protocol: as §1
(§3) In addition, several peptides expressed preferential activity vs. biofilms (MBIC) cf. planktonic cells (MIC) (Table 20).

E. coli (Ec) [25] = assay type: cell-based
Protocol: as §1, §3

E. coli (Ec) [26] = assay type: cell-based; remark: listed apart in the source
[27] = tested on: Mannheimia haemolytica (Mh); assay type: cell-based; remark: listed apart in the source
Protocol: as §1

[28] = planktonic methicillin resistant
[29] = planktonic methicillin resistant S. aureus, broth microdilution in Mueller Hinton Broth (MHB), mean of three biological replicates
[30] = planktonic methicillin resistant S. aureus, broth microdilution in Tryptic Soy Broth (TSB) supplemented with 1% glucose, mean of three biological replicates

| Substance | MIC S. aureus (S. aureus (Sau) [1]; Sau) [µg/mL] | MIC Sau (S. aureus (Sau) [1]; Sau) [µg/mL] | MBIC (Streptococcus suis (Ss) [2]) [µg/mL] | MBIC [3] [µg/mL] | MBIC [4] [µg/mL] | MBIC [5] [µg/mL] | MBIC (Histophilus somnus (Hs) [6]) [µg/mL] | MBIC [7] [µg/mL] | MBIC [8] [µg/mL] | MBIC [9] [µg/mL] | MBIC [10] [µg/mL] | MBIC [11] [µg/mL] | MIC (μM) MHB [12, 28] [µM] | MIC (μM) TSB with 1% Glucose [12, 28] [µM] | % Toxicity (LDH Release) (PBMCs) [%] | MIC Ss (Streptococcus suis (Ss) [13]) [µg/mL] | MIC Sp [14] [µg/mL] | MBIC S. aureus (S. aureus (Sau) [24]; Sau) [µg/mL] | MBIC E. coli (E. coli (Ec) [25]; Ec) [µg/mL] | MIC E. coli (E. coli (Ec) [26]; Ec) [µg/mL] | further results |
| --- | --- | --- | --- | --- | --- | --- | --- | --- | --- | --- | --- | --- | --- | --- | --- | --- | --- | --- | --- | --- | --- |
| AVAKWALKLWKQ-NH2 [Peptide 3009, AVAKWALKLWKQ] | >64 | >64 | 16 | 8 | >64 | >64 | 16 | 64 | 16 | 16 | >64 | 16 | >64 | >64 | −3.2 | >64 | 4 | 64 | 32 | >64 | MIC Pa [15]: >64 µg/mL; MIC Mh [16]: >64 µg/mL; MIC Sa [17]: >64 µg/mL; MIC Hs (Histophilus somnus (Hs) [18]): 64 µg/mL; MIC Bb [19]: >64 µg/mL; MIC Su [20]: 32 µg/mL; MIC Sd [21]: 32 µg/mL; MIC Se [22]: >64 µg/mL; MIC Pm [23]: >64 µg/mL; MBIC (S. aureus (Sau) [24]; Sau): 64 µg/mL; MBIC (E. coli (Ec) [25]; Ec): 32 µg/mL; MIC Ec (E. coli (Ec) [26]; Ec): >64 µg/mL |
| KIVIRIILQVIK-NH2 [Peptide 3015, KIVIRIILQVIK] | >64 | >64 | 64 | 8 | 32 | >64 | 16 | >64 | 4 | 4 | 2 | 1 | 64 | >64 | −3.8 | 64 | 16 | 64 | 64 | >64 | MBIC [27]: 16 µg/mL; MIC Pa [15]: 64 µg/mL; MIC Mh [16]: >64 µg/mL; MIC Sa [17]: >64 µg/mL; MIC Hs (Histophilus somnus (Hs) [18]): >64 µg/mL; MIC Bb [19]: 64 µg/mL; MIC Su [20]: 64 µg/mL; MIC Sd [21]: 32 µg/mL; MIC Se [22]: >64 µg/mL; MIC Pm [23]: 64 µg/mL; MBIC (S. aureus (Sau) [24]; Sau): 64 µg/mL; MBIC (E. coli (Ec) [25]; Ec): 64 µg/mL; MIC Ec (E. coli (Ec) [26]; Ec): >64 µg/mL |
| QLARLARVVWGL-NH2 [Peptide 3010, QLARLARVVWGL] | >64 | >64 | >64 | 64 | >64 | >64 | 64 | >64 | 32 | 16 | >64 | 4 | >64 | >64 | −2.4 | >64 | 64 | 64 | 32 | >64 | MBIC [27]: >64 µg/mL; MIC Pa [15]: >64 µg/mL; MIC Mh [16]: >64 µg/mL; MIC Sa [17]: >64 µg/mL; MIC Hs (Histophilus somnus (Hs) [18]): 64 µg/mL; MIC Bb [19]: >64 µg/mL; MIC Su [20]: 64 µg/mL; MIC Sd [21]: 32 µg/mL; MIC Se [22]: >64 µg/mL; MIC Pm [23]: >64 µg/mL; MBIC (S. aureus (Sau) [24]; Sau): 64 µg/mL; MBIC (E. coli (Ec) [25]; Ec): 32 µg/mL; MIC Ec (E. coli (Ec) [26]; Ec): >64 µg/mL |
| LAGLIVKWAGVR-NH2 [Peptide 3017, LAGLIVKWAGVR] | >64 | >64 | >64 | 64 | >64 | >64 | 32 | >64 | 16 | >64 | >64 | >64 | >64 | >64 | 5.9 | >64 | >64 | 4 | >64 | >64 | MBIC [27]: >64 µg/mL; MIC Pa [15]: >64 µg/mL; MIC Mh [16]: >64 µg/mL; MIC Sa [17]: 32 µg/mL; MIC Hs (Histophilus somnus (Hs) [18]): >64 µg/mL; MIC Bb [19]: >64 µg/mL; MIC Su [20]: 64 µg/mL; MIC Sd [21]: >64 µg/mL; MIC Se [22]: >64 µg/mL; MIC Pm [23]: >64 µg/mL; MBIC (S. aureus (Sau) [24]; Sau): 4 µg/mL; MBIC (E. coli (Ec) [25]; Ec): >64 µg/mL; MIC Ec (E. coli (Ec) [26]; Ec): >64 µg/mL |
| LIVIQLLKKWWK-NH2 [Peptide 3020, LIVIQLLKKWWK] | 16 |  |  |  |  |  |  |  |  |  |  |  | 8 | >64 | 10.2 |  |  | <1 | 1 | 2 |  |
| RRIIKILLWKLR-NH2 [Peptide 3021, RRIIKILLWKLR] | 8 |  |  |  |  |  |  |  |  |  |  |  | 4 | 32 | 13.1 |  |  | 1 | 2 | <1 |  |
| IAWQLLWGWRVR-NH2 [Peptide 3022, IAWQLLWGWRVR] | 8 |  |  |  |  |  |  |  |  |  |  |  | 4 | 8 | −4.8 |  |  | 4 | 4 | 8 |  |
| IQRWWKVWLKVI-NH2 [Peptide 3004, IQRWWKVWLKVI] | 8 |  |  |  |  |  |  |  |  |  |  |  | 4 | 16 | 5.1 |  |  | 1 | 2 | 4 |  |
| WKKVQWLKRLLL-NH2 [Peptide 3003, WKKVQWLKRLLL] | 16 |  |  |  |  |  |  |  |  |  |  |  | 4 | 16 | 22.5 |  |  | 1 | 2 | 4 |  |
| WVGVIIKWGLKL-NH2 [Peptide 3018, WVGVIIKWGLKL] | 2 |  |  |  |  |  |  |  |  |  |  |  | 2 | 4 | −0.3 |  |  | 1 | 2 | 4 |  |
| IKIIWKALGQVI-NH2 [Peptide 3024, IKIIWKALGQVI] | 16 |  |  |  |  |  |  |  |  |  |  |  |  |  | −1.7 |  |  | 8 | 2 | 4 | MIC (μM) MHB [12, 29]: 16 µM; MIC (μM) TSB with 1% Glucose [12, 30]: 32 µM |
| IWLRLKVVLKRK-NH2 [Peptide 3006, IWLRLKVVLKRK] |  |  |  |  |  |  |  |  |  |  |  |  |  |  | 2.4 |  |  |  |  |  | MIC S. aureus (S. aureus (Sau) [1]; planktonic cells, Table 20): 8 µg/mL; MIC (μM) MHB [12, 29]: 4 µM; MIC (μM) TSB with 1% Glucose [12, 30]: 32 µM; MBIC S. aureus (S. aureus (Sau) [24]; biofilms, Table 20): 1 µg/mL; MBIC E. coli (E. coli (Ec) [25]; biofilms, Table 20): 1 µg/mL; MIC E. coli (E. coli (Ec) [26]; planktonic cells, Table 20): 2 µg/mL |
